Drawing on ChEMBL document CHEMBL3132769, “Fragment growing to retain or alter the selectivity of anchored kinase hinge-binding fragments” (Medchemcomm, 2014), this text covers inhibition for seven compounds.

SMILES strings stand for the structures.

Test [1] has as its target Calcium/calmodulin-dependent protein kinase type II subunit delta (Homo sapiens) (UniProt Q13557). The note with it: 0.1 uM.
Description: Inhibition of human full length CAMK2D expressed in baculovirus assessed as substrate phosphorylation using fluorescence-labelled peptides as substrate at 0.1 uM after 90 mins by microfluidic peptide phosphorylation assay
Test [2] concerns the target Cyclin-dependent kinase 2 (Homo sapiens) (UniProt P24941). The experiment in a line: Inhibition of human full length CDK2 expressed in baculovirus assessed as substrate phosphorylation using fluorescence-labelled peptides as substrate at 0.1 uM after 90 mins by microfluidic peptide phosphorylation assay.
Test [3] deals with Insulin-like growth factor 1 receptor (Homo sapiens) (UniProt P08069). The experiment in a line: Inhibition of human IGF1R catalytic domain expressed in baculovirus assessed as substrate phosphorylation using fluorescence-labelled peptides as substrate at 0.1 uM after 90 mins by microfluidic peptide phosphorylation assay.
In test [4] the target is T1, Serine/threonine-protein kinase D3 (Homo sapiens) (UniProt O94806).
T1 sequence (whole entry): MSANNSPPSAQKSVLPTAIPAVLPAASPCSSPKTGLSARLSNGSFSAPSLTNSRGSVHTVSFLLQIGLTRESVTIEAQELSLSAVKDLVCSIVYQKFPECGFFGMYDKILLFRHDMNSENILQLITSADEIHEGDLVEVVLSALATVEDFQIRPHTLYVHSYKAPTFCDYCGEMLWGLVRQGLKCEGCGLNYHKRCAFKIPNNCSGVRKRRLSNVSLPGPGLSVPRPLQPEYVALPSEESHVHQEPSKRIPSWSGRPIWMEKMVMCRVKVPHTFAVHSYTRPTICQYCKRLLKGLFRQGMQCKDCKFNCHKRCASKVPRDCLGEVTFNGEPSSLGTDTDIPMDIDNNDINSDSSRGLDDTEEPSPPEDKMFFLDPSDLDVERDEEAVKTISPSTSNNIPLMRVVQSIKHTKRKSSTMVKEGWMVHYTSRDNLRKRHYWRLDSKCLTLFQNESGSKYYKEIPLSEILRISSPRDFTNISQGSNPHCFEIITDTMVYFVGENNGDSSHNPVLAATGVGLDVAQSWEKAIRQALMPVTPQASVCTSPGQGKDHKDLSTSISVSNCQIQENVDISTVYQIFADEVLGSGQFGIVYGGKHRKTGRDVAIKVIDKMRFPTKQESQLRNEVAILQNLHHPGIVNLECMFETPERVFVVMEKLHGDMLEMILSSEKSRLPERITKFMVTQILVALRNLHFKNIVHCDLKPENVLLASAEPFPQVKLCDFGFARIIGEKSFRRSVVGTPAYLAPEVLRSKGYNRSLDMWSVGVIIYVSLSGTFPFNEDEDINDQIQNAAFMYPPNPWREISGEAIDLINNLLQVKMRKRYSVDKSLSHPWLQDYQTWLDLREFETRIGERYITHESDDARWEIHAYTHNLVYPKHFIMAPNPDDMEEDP
The experiment in a line: Inhibition of human full length PKD3 expressed in baculovirus assessed as substrate phosphorylation using fluorescence-labelled peptides as substrate at 0.06 uM after 90 mins by microfluidic peptide phosphorylation assay.

Test [5] addresses T2, Testis-specific serine/threonine-protein kinase 1 (Homo sapiens) (UniProt Q9BXA7).
T2 sequence (whole entry): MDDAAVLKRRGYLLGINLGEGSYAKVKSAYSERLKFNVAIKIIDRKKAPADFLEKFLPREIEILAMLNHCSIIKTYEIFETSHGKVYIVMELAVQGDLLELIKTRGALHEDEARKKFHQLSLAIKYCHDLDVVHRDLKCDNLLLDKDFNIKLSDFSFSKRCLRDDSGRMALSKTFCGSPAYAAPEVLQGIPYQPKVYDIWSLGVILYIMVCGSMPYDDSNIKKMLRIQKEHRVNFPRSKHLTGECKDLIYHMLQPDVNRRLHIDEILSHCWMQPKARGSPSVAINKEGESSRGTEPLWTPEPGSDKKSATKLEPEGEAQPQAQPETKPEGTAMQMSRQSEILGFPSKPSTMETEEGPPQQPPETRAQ
Put plainly: Inhibition of human full length TSSK1 expressed in baculovirus assessed as substrate phosphorylation using fluorescence-labelled peptides as substrate at 0.06 uM after 90 mins by microfluidic peptide phosphorylation assay.

Test [6] concerns the target Epidermal growth factor receptor (Homo sapiens) (UniProt P00533). Put plainly: Inhibition of human EGFR catalytic domain expressed in baculovirus assessed as substrate phosphorylation using fluorescence-labelled peptides as substrate at 0.2 uM after 90 mins by microfluidic peptide phosphorylation assay.
The target of test [7] is Protein kinase C eta type (Homo sapiens) (UniProt P24723). The experiment in a line: Inhibition of human truncated PKC eta expressed in baculovirus assessed as substrate phosphorylation using fluorescence-labelled peptides as substrate at 9 uM after 90 mins by microfluidic peptide phosphorylation assay.
In test [8] the target is Platelet-derived growth factor receptor alpha (Homo sapiens) (UniProt P16234). The experiment in a line: Inhibition of human PDGFR alpha catalytic domain expressed in baculovirus assessed as substrate phosphorylation using fluorescence-labelled peptides as substrate at 70 uM after 90 mins by microfluidic peptide phosphorylation assay.
The target in test [9] is T3, Serine/threonine-protein kinase D2 (Homo sapiens) (UniProt Q9BZL6).
T3 sequence (whole entry): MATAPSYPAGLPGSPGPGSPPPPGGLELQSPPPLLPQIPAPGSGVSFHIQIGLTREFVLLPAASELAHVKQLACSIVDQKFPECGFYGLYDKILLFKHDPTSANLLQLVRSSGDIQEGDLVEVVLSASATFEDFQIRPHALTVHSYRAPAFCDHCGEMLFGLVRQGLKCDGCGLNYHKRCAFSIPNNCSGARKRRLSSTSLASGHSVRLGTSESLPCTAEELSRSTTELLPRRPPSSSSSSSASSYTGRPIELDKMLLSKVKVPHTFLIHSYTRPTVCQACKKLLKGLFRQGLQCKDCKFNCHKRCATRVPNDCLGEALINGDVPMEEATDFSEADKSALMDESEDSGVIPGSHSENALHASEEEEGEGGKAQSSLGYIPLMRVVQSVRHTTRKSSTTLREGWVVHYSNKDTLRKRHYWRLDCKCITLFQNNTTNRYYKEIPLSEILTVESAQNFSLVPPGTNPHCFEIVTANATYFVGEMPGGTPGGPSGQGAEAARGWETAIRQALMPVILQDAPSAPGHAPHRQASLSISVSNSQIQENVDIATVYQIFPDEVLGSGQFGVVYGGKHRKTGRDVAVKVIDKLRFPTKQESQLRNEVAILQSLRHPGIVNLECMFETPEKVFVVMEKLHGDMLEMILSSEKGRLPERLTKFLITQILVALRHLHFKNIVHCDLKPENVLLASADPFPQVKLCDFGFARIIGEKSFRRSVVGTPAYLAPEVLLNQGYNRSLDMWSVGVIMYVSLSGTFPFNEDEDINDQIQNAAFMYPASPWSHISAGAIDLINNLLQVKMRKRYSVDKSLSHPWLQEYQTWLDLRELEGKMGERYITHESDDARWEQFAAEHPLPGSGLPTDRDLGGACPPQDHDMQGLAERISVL
Put plainly: Inhibition of human full length PKD2 expressed in baculovirus assessed as substrate phosphorylation using fluorescence-labelled peptides as substrate at 1000 uM after 90 mins by microfluidic peptide phosphorylation assay.

Test [10] has as its target Tyrosine-protein kinase Fyn (Homo sapiens) (UniProt P06241). The experiment in a line: Inhibition of human full length FYN expressed in baculovirus assessed as substrate phosphorylation using fluorescence-labelled peptides as substrate at […] after 90 mins by microfluidic peptide phosphorylation assay.

Sequence of Platelet-derived growth factor receptor alpha (Homo sapiens) (P16234 whole entry, the tested form may be a part): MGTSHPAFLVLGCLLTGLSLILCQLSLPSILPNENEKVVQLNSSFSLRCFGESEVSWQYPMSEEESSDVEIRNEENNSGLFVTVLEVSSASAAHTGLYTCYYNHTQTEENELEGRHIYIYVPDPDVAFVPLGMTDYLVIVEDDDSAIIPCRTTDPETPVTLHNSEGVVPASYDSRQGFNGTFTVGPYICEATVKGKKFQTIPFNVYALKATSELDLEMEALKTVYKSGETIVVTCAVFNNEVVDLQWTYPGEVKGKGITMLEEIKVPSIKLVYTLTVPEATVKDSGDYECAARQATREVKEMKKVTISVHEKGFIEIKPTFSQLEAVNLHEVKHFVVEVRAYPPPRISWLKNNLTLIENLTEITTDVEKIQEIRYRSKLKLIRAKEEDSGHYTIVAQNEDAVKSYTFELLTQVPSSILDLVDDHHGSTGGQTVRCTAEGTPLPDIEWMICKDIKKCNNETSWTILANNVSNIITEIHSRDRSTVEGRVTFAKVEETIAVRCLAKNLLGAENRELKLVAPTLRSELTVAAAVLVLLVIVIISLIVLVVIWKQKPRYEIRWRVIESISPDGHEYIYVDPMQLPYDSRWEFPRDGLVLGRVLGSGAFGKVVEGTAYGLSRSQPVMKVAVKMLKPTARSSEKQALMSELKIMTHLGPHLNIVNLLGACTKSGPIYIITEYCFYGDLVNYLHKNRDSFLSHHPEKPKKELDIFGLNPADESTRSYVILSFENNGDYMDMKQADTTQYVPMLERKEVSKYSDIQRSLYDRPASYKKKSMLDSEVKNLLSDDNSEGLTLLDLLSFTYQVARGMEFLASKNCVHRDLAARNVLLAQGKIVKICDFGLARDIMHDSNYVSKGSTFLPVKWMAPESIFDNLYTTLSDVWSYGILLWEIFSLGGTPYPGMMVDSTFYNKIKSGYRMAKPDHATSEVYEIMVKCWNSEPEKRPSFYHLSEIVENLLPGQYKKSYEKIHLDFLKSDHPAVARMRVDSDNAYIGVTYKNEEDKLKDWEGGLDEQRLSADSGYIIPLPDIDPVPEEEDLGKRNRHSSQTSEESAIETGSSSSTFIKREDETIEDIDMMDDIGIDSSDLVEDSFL
Sequence of Epidermal growth factor receptor (Homo sapiens) (P00533 whole entry, the tested form may be a part): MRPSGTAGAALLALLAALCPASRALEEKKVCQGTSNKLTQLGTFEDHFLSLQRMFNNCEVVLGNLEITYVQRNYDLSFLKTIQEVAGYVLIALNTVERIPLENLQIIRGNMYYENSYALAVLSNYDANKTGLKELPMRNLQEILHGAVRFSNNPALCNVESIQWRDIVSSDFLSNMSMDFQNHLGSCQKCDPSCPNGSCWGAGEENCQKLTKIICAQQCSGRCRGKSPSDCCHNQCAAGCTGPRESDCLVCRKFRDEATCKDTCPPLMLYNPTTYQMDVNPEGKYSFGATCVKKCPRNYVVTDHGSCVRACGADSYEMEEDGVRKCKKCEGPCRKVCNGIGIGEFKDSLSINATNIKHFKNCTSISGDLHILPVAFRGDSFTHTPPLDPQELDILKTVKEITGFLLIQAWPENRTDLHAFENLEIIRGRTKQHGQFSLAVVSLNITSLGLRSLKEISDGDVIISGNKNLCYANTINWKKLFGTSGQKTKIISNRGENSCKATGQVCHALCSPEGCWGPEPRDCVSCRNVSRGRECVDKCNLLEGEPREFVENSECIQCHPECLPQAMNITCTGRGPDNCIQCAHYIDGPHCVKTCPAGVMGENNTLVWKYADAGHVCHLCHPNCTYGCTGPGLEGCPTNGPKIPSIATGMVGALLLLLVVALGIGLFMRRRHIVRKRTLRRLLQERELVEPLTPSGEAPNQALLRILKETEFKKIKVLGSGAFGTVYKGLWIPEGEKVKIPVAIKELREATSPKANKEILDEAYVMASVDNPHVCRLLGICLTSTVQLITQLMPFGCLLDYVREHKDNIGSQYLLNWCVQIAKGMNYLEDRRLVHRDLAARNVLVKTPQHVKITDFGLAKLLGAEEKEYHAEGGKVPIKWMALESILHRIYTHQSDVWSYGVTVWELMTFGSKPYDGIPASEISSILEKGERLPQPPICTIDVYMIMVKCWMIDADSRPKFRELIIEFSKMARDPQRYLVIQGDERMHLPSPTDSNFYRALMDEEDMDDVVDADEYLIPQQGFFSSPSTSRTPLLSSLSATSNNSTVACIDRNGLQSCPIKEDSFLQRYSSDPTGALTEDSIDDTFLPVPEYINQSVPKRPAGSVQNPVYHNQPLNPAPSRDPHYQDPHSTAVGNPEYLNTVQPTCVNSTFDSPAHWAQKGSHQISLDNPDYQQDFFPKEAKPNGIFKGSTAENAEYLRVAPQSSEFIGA
Sequence of Protein kinase C eta type (Homo sapiens) (P24723 whole entry, the tested form may be a part): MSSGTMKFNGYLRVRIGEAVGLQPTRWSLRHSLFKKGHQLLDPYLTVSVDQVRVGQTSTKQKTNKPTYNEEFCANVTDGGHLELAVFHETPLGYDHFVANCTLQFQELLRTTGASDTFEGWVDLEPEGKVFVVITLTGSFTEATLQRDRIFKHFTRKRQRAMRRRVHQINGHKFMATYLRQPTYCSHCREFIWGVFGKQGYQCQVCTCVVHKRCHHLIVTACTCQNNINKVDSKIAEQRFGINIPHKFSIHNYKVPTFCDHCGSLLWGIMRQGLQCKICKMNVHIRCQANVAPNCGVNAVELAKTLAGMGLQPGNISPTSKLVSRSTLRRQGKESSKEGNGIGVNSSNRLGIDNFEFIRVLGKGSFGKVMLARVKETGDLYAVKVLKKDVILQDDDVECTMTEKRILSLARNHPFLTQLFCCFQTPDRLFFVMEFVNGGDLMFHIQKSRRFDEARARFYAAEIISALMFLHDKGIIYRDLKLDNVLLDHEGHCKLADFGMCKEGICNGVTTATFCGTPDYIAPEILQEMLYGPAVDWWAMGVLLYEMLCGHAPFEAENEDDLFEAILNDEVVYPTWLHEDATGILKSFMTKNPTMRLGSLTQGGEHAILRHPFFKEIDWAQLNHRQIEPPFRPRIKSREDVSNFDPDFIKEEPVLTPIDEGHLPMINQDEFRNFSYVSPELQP
Sequence of Tyrosine-protein kinase Fyn (Homo sapiens) (P06241 2-537 limits assumed): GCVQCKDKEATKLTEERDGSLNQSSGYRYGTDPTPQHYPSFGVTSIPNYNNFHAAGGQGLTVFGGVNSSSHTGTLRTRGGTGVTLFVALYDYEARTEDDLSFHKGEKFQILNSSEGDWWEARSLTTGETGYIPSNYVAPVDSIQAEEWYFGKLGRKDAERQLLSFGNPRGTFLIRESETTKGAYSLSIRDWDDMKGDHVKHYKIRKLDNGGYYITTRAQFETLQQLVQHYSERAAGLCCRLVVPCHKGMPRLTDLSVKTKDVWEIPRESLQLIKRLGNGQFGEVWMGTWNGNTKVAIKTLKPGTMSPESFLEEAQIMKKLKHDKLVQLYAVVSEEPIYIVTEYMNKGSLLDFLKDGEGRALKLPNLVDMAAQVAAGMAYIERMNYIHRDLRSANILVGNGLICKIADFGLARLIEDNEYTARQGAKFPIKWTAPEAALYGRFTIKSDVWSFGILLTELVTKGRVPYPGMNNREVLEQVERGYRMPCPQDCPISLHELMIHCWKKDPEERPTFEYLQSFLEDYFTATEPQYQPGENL
Sequence of Calcium/calmodulin-dependent protein kinase type II subunit delta (Homo sapiens) (Q13557 whole entry): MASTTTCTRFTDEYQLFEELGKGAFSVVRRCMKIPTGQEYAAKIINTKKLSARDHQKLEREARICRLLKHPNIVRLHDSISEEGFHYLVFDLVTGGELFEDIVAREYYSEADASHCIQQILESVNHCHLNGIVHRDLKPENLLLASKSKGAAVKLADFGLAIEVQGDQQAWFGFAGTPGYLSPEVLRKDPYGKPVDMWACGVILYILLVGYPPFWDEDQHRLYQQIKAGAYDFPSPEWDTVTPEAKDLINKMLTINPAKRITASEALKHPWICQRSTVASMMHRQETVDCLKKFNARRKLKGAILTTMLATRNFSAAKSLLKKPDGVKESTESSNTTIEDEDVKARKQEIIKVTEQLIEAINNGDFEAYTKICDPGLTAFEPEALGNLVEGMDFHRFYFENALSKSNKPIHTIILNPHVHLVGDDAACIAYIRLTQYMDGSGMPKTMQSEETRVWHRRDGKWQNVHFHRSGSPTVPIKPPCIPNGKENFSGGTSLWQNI

By inhibition is commonly meant the relative decrease from the control value, in per cent. Take `C[C@H](CN(C)C)Oc1nc(Nc2cc3cccc(Cl)c3cn2)cnc1C#N`: the inhibition in test [1] is 0%; in test [2] it was 1.5%; in [3], 9.5%.

Consider `NC1(Cc2ccc(Cl)cc2)CCN(c2ncnc3[nH]ccc23)CC1`, for which the inhibition in test [4] and in test [5] was 0% each time.

`Clc1ccc(C2(c3ccc(-c4ncnc5[nH]cnc45)cc3)CCNCC2)cc1`: the inhibition in [6] was 2.5%.

As to `NCC1CN(c2ncnc3[nH]c4cnccc4c23)CCO1` (stereo not given), the inhibition in [7] was determined as 54.5%.

`CNCc1ccc(-c2ncnc3[nH]cnc23)cc1`: the inhibition in test [8] came out at 16.5%.

For `c1cnc2[nH]ccc2c1`, the inhibition in [9] was found to be 49.5%.

Regarding `COC(=O)c1cnc(Nc2cnc(C#N)cn2)cc1NCC1CCNCC1`, the inhibition in test [10] came to 2%.
